Experiment [1] concerns Sclerotinia fructicola. The experiment can be described thus: Mycelial growth test. Format: cell-based. The following applies: Sclerotinia, 72 h, SF, read-out: Percent Fungus Growth Inhibition. An excerpt:
| SF = Sclerotinia fructicola

For experiment [2], the system named is Uromyces phaseoli. Description: whole plant or invertebrate. The following applies: foliar, read-out: Percent Disease Control, foliar, bean rust.

Broadly, the inhibition is the relative decrease from the control value, in per cent.

Regarding `Cc1cc(Oc2nsnc(Cl)c2=O)ccc1Cl` [Compound 54, 3-chloro-5-(4-chloro-3-methylphenoxy)-4H--1,2,6-thiadiazin-4-one], in experiment [1], the inhibition at 5 ppm worked out at 49%, the inhibition at 10 ppm was determined as 50%, the inhibition at 20 ppm is 53% and the inhibition at 40 ppm stood at 64%. Besides, in experiment [2], the pest or weed control at 150 ppm amounted to 100%.

Consider `Cc1cc(Cl)ccc1Oc1nsnc(Cl)c1=O` [Compound 55, 3-chloro-5-(4-chloro-2-methylphenoxy)-4H--1,2,6-thiadiazin-4-one], for which, in experiment [1], the inhibition at 5 ppm was 42%, the inhibition at 10 ppm is 50%, the inhibition at 20 ppm is 56% and the inhibition at 40 ppm stood at 61%. Further, the pest or weed control at 150 ppm in experiment [2] worked out at 100%.

Regarding `Cc1ccc(Cl)c(Oc2nsnc(Cl)c2=O)c1` [Compound 56, 3-chloro-5-[(2-chloro-5-methyl)phenoxy]-4H--1,2,6-thiadiazin-4-one], in experiment [1], the inhibition at 5 ppm is 69%, the inhibition at 10 ppm was 78%, the inhibition at 20 ppm is 100% and the inhibition at 40 ppm stood at 100%. For the same molecule, the pest or weed control at 150 ppm in experiment [2] is 0%.

On to `Cc1ccc(Oc2nsnc(Cl)c2=O)c(Br)c1` [Compound 57, 3-[(2-bromo-4-methyl)-phenoxy]-5-chloro-4H--1,2,6-thiadiazin-4-one], for which, in experiment [1], the inhibition at 5 ppm amounted to 68%, the inhibition at 10 ppm was 82%, the inhibition at 20 ppm came to 100% and the inhibition at 40 ppm came out at 100%. Also, in experiment [2], the pest or weed control at 150 ppm is 100%.

With `Cc1cc(Cl)c(Oc2nsnc(Cl)c2=O)cc1C` [Compound 58, 3-chloro-5-[(2-chloro-4,5-dimethyl)phenoxy]-4H--1,2,6-thiadiazin-4-one], in experiment [1], the inhibition at 5 ppm amounted to 56%, the inhibition at 10 ppm stood at 65%, the inhibition at 20 ppm came out at 68% and the inhibition at 40 ppm amounted to 71%. Besides, in experiment [2], the pest or weed control at 150 ppm amounted to 100%.

Consider `Cc1cc(Oc2nsnc(Cl)c2=O)cc(C)c1Cl` [Compound 59, 3-chloro-5-[(4-chloro-3,5-dimethyl)phenoxy]-4H--1,2,6-thiadiazin-4-one], for which, in experiment [1], the inhibition at 5 ppm amounted to 71%, the inhibition at 10 ppm is 68%, the inhibition at 20 ppm came to 59% and the inhibition at 40 ppm was determined as 74%. For the same molecule, the pest or weed control at 150 ppm in experiment [2] came out at 0%.

In the case of `Cc1cc(Oc2nsnc(Cl)c2=O)cc(C)c1Br` [Compound 60, 3-[(4-bromo-3,5-dimethyl)-phenoxy]-5-chloro-4H--1,2,6-thiadiazin-4-one], in experiment [1], the inhibition at 5 ppm came out at 56%, the inhibition at 10 ppm came to 71%, the inhibition at 20 ppm stood at 65% and the inhibition at 40 ppm is 71%. Moreover, in experiment [2], the pest or weed control at 150 ppm stood at 100%.

Take `COc1cc(Oc2nsnc(Cl)c2=O)cc(OC)c1C(C)=O` [Compound 61, 3-[(4-acetyl-3,5-dimethoxy)-phenoxy]-5-chloro-4H--1,2,6-thiadiazin-4-one]: in experiment [1], the inhibition at 5 ppm amounted to 7%, the inhibition at 10 ppm was found to be 19%, the inhibition at 20 ppm came out at 59% and the inhibition at 40 ppm is 85%. In addition, in experiment [2], the pest or weed control at 150 ppm came out at 100%.

The values are drawn from patent publication US4450269A, “Mono-5-substituted-3-chloro-4H-1,2,6-thiadiazin-4-one antifungal agents” (FMC Corporation, priority 1980, dated 1984).
